Experimental data: patent US20120219568A1, “EPIDITHIODIOXO[…] USES THEREOF IN TREATING CANCER” (priority 2011, published 2012)

Experiments:
[1] = system: SW620 cells; test: SW620 growth with anticancer drugs, MTT assay; format: cell-based, human; settings: for growth inhibitory effect of the drug alone at lower dose: Etoposide 1 μg/ml, Cisplatin 1 μg/ml, 5-FU 0.1 μg/ml, Doxorubicin 0.01 μg/ml; for SW620 cell sensitivity to the drug: drug alone
Method: For cell viability assay, cells were seeded in wells of 96-well plates for 2 days and then treated with different concentrations of mushroom extract fractions or purified verticillin A for 2 days. The cells were then incubated with MTT (3-(4,5-dimethylthiazol-2-yl)-2,5-diphenyltetrazolium bromide) using the MTT assay kit (ATCC, Manassas, Va.) according to the manufacturer's instructions.
Etoposie, Cisplatin, 5-FU and Doxorubicin are commonly used cancer drugs that suppress tumor cell growth through their cytotoxicity. High cytotoxicity is often associated with high dose of their drugs. Furthermore, tumor cells often develop resistance to these cytotoxic drugs. To determine whether Verticillin A can increase the efficacy of these drugs and overcome drug resistance, the effectiveness of Verticillin A combined with these 4 drugs in suppression of tumor cell growth was tested in vitro. SW620 cell sensitivity to these drugs was first measured. SW620 cells are resistant to Etoposide but sensitive to 5-FU. […] SW620 cells were next pretreated with Verticillin A, followed by treatment with Etoposide (1 μg/ml), Cisplatin (1 μg/ml), 5-FU ([…]) and Doxorubicin (0.01 μg/ml), respectively.

[2] = system: BNIP3, IRF8, Neurog1, p15ink4b, RUNX3; test: Expression of genes with methylated promoters; format: cell-based, human; settings: SW620, AzadC 0-1.0 μM
Method: To determine whether verticillin A inhibits DNA methylation in other gene promoters, 4 other genes (IRF8, Neurog1, p15ink4b, RUNX3) with known promoter DNA methylation in human colon carcinoma cells were selected. SW620 cells were treated with AzadC (0-1.0 μM) and verticillin A (0-50 nM), respectively, and analyzed for the expression of BNIP3 and these 4 genes.

[3] = system: SW620 cells; test: Exogenous ceramide and TRAIL-mediated apoptosis; format: cell-based, human
Method: FIG. 8 is a bar graph showing cell death (%) of SW620 cells incubated with C16 ceramide for 2 h followed by treatment with TRAIL overnight. The tumor cells were then stained with PI and annex V and analyzed by flow cytometry. % apoptotic cells were calculated by the formula [% annexin V^+ cells of the TRAIL-treated cells-% annexin V^+ cells of untreated cells].
A-CDase catalyzes ceramide degradation to decrease ceramide level in the cells and overexpression of A-Cdase is often associated with apoptosis resistance in tumor cells (Elojeimy S, et al. Mol Ther 2007 15(7):1259-63; Liu X, et al. Front Biosci 2008 13:2293-8; Mao C, et al. Biochim Biophys Acta 2008 1781(9):424-34; Ogretmen B. FEBS Lett 2006 580(23):5467-76; Baran Y, et al. J Biol Chem 2007 282(15):10922-34). Inhibition of A-CDase activity is often associated with increased ceramide level and enhanced apoptosis sensitivity (Liu X, et al. Front Biosci 2008 13:2293-8; Ogretmen B. FEBS Lett 2006 580(23):5467-76; White-Gilbertson S, et al. Oncogene 2009 28(8):1132-41). Next, we examined the effect of exogenous ceramide on tumor cell sensitivity to TRAIL-mediated apoptosis. SW620 cells were incubated with different concentrations of C16 ceramide for 2 h and then treated with TRAIL.

[4] = system: Colon carcinoma (LS114N, T84, LS174T and SW620); test: A-CDase inhibitor pre-treatment and TRAIL-induced apoptosis; format: cell-based; settings: LCL85 pre-treatment prior to TRAIL
Method: A complementary approach was examined to determine the role of A-CDase in TRAIL resistance. Colon carcinoma (LS114N, T84, LS174T and SW620) were treated with A-CDase inhibitor LCL85 prior to TRAIL treatment and analyzed for apoptosis.

[5] = system: SW620 cells; test: Apoptosis and TRAIL sensitization of SW620 cells (PI/annexin V flow cytometry); format: cell-based, human; settings: SW620, agent alone
Method: Cells were seeded in wells of 96-well plates for 2 days and then treated with different concentrations of mushroom extract fractions or purified verticillin A for 2 days. The cells were stained with propidium iodide (PI) (Trevigen, Gaithersburg, Md.) or PI plus annexin V-Alex Fluor 647 (Biolegend, San Diego, Calif.) and analyzed by flow cytometry.
SW620 is a metastatic human colon carcinoma cell line that is resistant to TRAIL-induced apoptosis (Voelkel-Johnson C, et al. Mol Cancer Ther 2005 4(9):1320-7).

[6] = system: SW620 tumor xenograft; test: SW620 tumor xenograft growth in athymic mice; format: in vivo; settings: TRAIL single agent
Method: Athymic mice were subcutaneously inoculated with human hepatoma HepG2 and colon carcinoma SW620 cells, respectively. The tumor-bearing mice were randomized into experimental groups. The control mice were given saline. The treatment group was intravenously injected with verticillin A at the doses of 1 and 2 mg/kg body weight. Tumor size was measured in 2 diameter with micrometer caliper at the indicate times to permit calculation of tumor volume, V=(a×b^2)/2, where “a” is the length and “b” is the width in millimeters. At the end of the experiment, all the animals were sacrificed, The tumor inhibitory rates were calculated using the following formula: [(mean tumor volume of control nude mice−mean tumor volume of treated nude mice)/mean tumor volume of control nude mice]×100%.
The disclosed observations indicate that verticillin A can dramatically increase TRAIL-induced tumor cell apoptosis. To determine whether these in vitro observations can be extended to enhance TRAIL-mediated tumor suppression in vivo, SW620 cells were injected subcutaneously to athymic mice, verticillin A and TRAIL, either used as single agent or in combination, were then injected to the tumor-bearing mice. Tumor growth rate were measured in different time points. Verticillin A can inhibit tumor cell growth in vitro at high dose and sensitize tumor cells to TRAIL-induced apoptosis at a low dose. […] As expected, SW620 tumors are resistant to TRAIL (Voelkel-Johnson C, et al. Mol Cancer Ther 2005 4(9):1320-7).

Molecule | growth inhibitory effect of the drug alone at lower dose [1] | SW620 cell sensitivity to the drug [1] | other results
O=c1[nH]cc(F)c(=O)[nH]1 [5-FU] | minimal inhibitory effects | sensitive | –
Nc1ncn([C@H]2C[C@H](O)[C@@H](CO)O2)c(=O)n1 [AzadC, reference compound] | – | – | expression levels of BNIP3, IRF8, Neurog1, p15ink4b, RUNX3 [2]: dramatically increased
CCCCCCCCCCCCC/C=C/[C@@H](O)[C@H](CO)NC(=O)CCCCCCCCCCCCCCC [C16 ceramide] | – | – | tumor cell sensitivity to TRAIL-mediated apoptosis ([3]; SW620, C16 ceramide 2 h then TRAIL): dramatically increased the tumor cell sensitivity to TRAIL-mediated apoptosis; apoptosis-inducing activity ([3]; SW620, C16 ceramide alone): exhibited apoptosis-inducing activity at a dose-dependent manner
N.N.[Cl][Pt][Cl] [Cisplatin] | minimal inhibitory effects | only sensitive to high doses | –
COc1cccc2c1C(=O)c1c(O)c3c(c(O)c1C2=O)C[C@@](O)(C(=O)CO)C[C@@H]3O[C@H]1C[C@H](N)[C@H](O)[C@H](C)O1 [Doxorubicin] | minimal inhibitory effects | only sensitive to high doses | –
COc1cc([C@@H]2c3cc4c(cc3[C@@H](O[C@@H]3O[C@@H]5CO[C@@H](C)O[C@H]5[C@H](O)[C@H]3O)[C@H]3COC(=O)[C@H]23)OCO4)cc(OC)c1O [Etoposide] | minimal inhibitory effects | resistant | –
O=C(CCCCCCCCCCCCCCC[n+]1ccccc1)N[C@H](CO)[C@H](O)c1ccc([N+](=O)[O-])cc1.[Br-] [LCL85, (1R,2R)-2_N-[16-(1′-pyridinium)-hexadecanoylamino)-1-(4′-nitrophenyl)-1,3-propandiol bromide] | – | – | sensitivity of tumor cells to TRAIL-induced apoptosis [4]: significantly increased the sensitivity of tumor cells to TRAIL-induced apoptosis
TRAIL: TNF-related apoptosis-inducing ligand; recombinant TRAIL protein expressed and purified from E. coli (protein, UniProt P50591 1-281, looked up) Tumor necrosis factor ligand …: MAMMEVQGGPSLGQTCVLIVIFTVLLQSLCVAVTYVYFTNELKQMQDKYSKSGIACFLKEDDSYWDPNDEESMNSPCWQVKWQLRQLVRKMILRTSEETISTVQEKQQNISPLVRERGPQRVAAHITGTRGRSNTLSSPNSKNEKALGRKINSWESSRSGHSFLSNLHLRNGELVIHEKGFYYIYSQTYFRFQEEIKENTKNDKQMVQYIYKYTSYPDPILLMKSARNSCWSKDAEYGLYSIYQGGIFELKENDRIFVSVTNEHLIDMDHEASFFGAFLVG | – | – | apoptosis induction, single agent [5]: no apoptosis induction activity; SW620 tumor response to TRAIL alone [6]: resistant
